The experiment concerns kynurenine production in HeLa cells. Nature of the experiment: Inhibition of kynurenine production in HeLa cells. The class given is cell-based, human. To be noted: 48 h. How it is done:
The effect of compounds described herein on the inhibition of kynurenine production in HeLa cells (derived from human cervical cancer) was determined. HeLa cells were seeded into a 96-well culture plate at a density of 5×10^3 per well in RPMI1640/phenol red free media (from GIBCO) with 2 mM L-glutamine and 10% fetal bovine serum (FBS, from GIBCO) and grown overnight in a 37° C. incubator with 5% CO2. Twenty-four hours later, human IFN-γ (from GIBCO) (final concentration 50 ng/mL) and test compound solutions (serially diluted to different wells) were added to each well with a final volume of 200 uL per well. Forty-eight hours after incubation with compounds, 140 uL supernatant was taken from each well and was transferred to a new 96-well plate. Ten microliters of 6.1 N trichloroacetic acid were added into each well, mixed and incubated at 50° C. for 30 minutes. The reaction mixture was then centrifuged for 10 minutes at 2500 rpm and 100 uL of the supernatant per well was transferred to another 96 well plate and mixed with 100 uL of 2% (w/v) p-dimethylaminobenzaldehyde in acetic acid. The yellow color derived from kynurenine was measured at 480 nm using a SPECTRAmax i3 reader. Each compound concentration was done in triplicates and compound IC50 value was calculated using nonlinear regression using Graphpad Prism 5.0.
The inhibitory activity of representative compounds described herein, compared with another IDO inhibitor, such as INCB-24360, Controls 1 and 2 are shown in Table 2.

[1] abbreviates: Homo sapiens, HeLa, HeLa cells, human IFN-γ 50 ng/mL, kynurenine read at 480 nm, read-out: IC50.
Setting [2] is: HeLa cells, human IFN-γ 50 ng/mL, kynurenine read at 480 nm, read-out: IC50.

Like-named read-outs stand apart in the source and are kept apart here. Where only a bound is given, the exact number is not on record here.

As for `CC(C)CN(c1ncc(C2(C(=O)O)CCC2)cc1NC(=O)Nc1ccc(F)cc1F)C1CCOCC1` [Compound 90], under setting [1], the IC50 came out at 33 nM.

In the case of `CC(C)CN(c1ccc(C2(C(=O)O)CCCC2)cc1NC(=O)Nc1ccc(F)cc1F)C1CCC(F)(F)CC1` [Compound 12], under setting [1], the IC50 was found to be 0.5 nM. The same measure, in the same setting: as for `CC(C)CN(c1ccc(C2(C(=O)O)CCC2)cc1NC(=O)Nc1ccc(F)cc1F)C1CCCCC1` [Compound 21], the figure is 0.6 nM; as for `CC(C)CN(c1ccc(C2(C(=O)O)CCC2)cc1NCC1CC1)C1CCOCC1` [Compound 80], 29 nM. For `CCC(C(=O)O)c1ccc(N(CC(C)C)C2CCOCC2)c(Nc2ccc(Cl)cc2)c1` (centres unmarked) [Compound 68B], the IC50 under setting [2] was 0.7 nM. As to `CCOc1ccc(Nc2cc(C3(C(=O)O)CCC3)ccc2N(CC(C)C)C2CCCCC2)cc1` [Compound 53], under setting [1], the IC50 turned out to be 1 nM. Same read-out and setting: as for `CC(C)CN(c1ccc(C2(C(=O)O)CCC2)cc1NC(=O)C(C)C)C1CCOCC1` [Compound 50], the figure is more than 316 nM; as for `CC(C)CN(CC(C)C)c1ccc(OC(C)(C)C(=O)O)cc1NC(=O)Nc1cncnc1` [Compound 33], 48 nM.

Take `CC(C)N(CC1CC1)c1ccc(C2(C(=O)O)CCC2)cc1Nc1ccc(C#N)cn1` [Compound 108]: the IC50 under setting [1] worked out at 0.3 nM. With `CCC(C(=O)O)c1ccc(N(CC(C)C)C2CCOCC2)c(NC(=O)Nc2ccc(F)cc2F)c1` (single isomer, unassigned) [Compound 65B], the half-inhibitory concentration (IC50) under setting [2] is 12 nM.

Consider `CC(C)CN(c1ccc(CC(=O)O)cc1Nc1ccc(Cl)cc1)C1CCOCC1` [Compound 104], for which, under setting [1], the IC50 stood at 1.8 nM. In the case of `CCC(C(=O)O)c1ccc(N(CC(C)C)C2CCCCC2)c(NC(=O)Nc2cncnc2)c1` (single isomer, unassigned) [Compound 64A], the IC50 under setting [2] is 4.2 nM. In the case of `CCC(C(=O)O)c1ccc(N(CC(C)C)C2CCCCC2)c(NC(=O)Nc2ccc(F)cc2F)c1` (single isomer, unassigned) [Compound 62A], the IC50 under setting [2] stood at 1.4 nM. For the compound `CC(C)CN(c1ccc(C2(C(=O)O)CCC2)cc1NC(=O)Nc1ccc(F)cc1F)C1CCN(C)CC1` [Compound 28], the IC50 (Homo sapiens, HeLa) is more than 316 nM. For the compound `CC(C)CN(CC(C)C)c1ccc(C(C)C(=O)O)cc1NC(=O)Nc1ccc(F)cc1F` (centres unmarked) [Compound 2], the IC50 under setting [1] stood at 9.1 nM.

With `CCC(C(=O)O)c1ccc(N(CC(C)C)CC(C)C)c(NC(=O)Nc2cc(C)no2)c1` (single isomer, unassigned) [Compound 59A], the IC50 under setting [2] stood at 12.7 nM. On to `CC(C)CN(c1ncc(C2(C(=O)O)CCC2)cc1Nc1ccc(Cl)cc1)C1CCOCC1` [Compound 92], for which the IC50 under setting [1] came to 0.2 nM. On the same count and under the same terms, as for `CC(C)CN(CC(C)C)c1ccc(CC(=O)O)cc1NC(=O)Nc1ccc(F)cc1F` [Compound 1, 2-[4-[bis(2-methylpropyl)amino]-3-[[(2,4-difluorophenyl)carbamoyl]amino]phenyl]acetic acid], the figure is 130 nM. As to `CC(C)CN(c1ccc(C2(C(=O)O)CCC2)cc1Nc1ccc(Cl)cn1)C1CCOCC1` [Compound 102], under setting [1], the IC50 came out at 0.2 nM. For `CC(C)CN(CC(C)C)c1ncc(C2(C(=O)O)CCC2)cc1Nc1ccc(C#N)cc1` [Compound 93], the IC50 under setting [1] was 0.3 nM. For the compound `CC(C)CN(CC(C)C)c1ccc(C2(C(=O)O)CCCC2)cc1Nc1ccc(Cl)cc1` [Compound 51], the IC50 under setting [1] stood at 2.3 nM. Consider `Cc1ccc(NC(=O)Nc2cc(C3(C(=O)O)CCCC3)ccc2N(CCC(F)(F)F)Cc2ccc(OC(F)(F)F)cc2)cc1` [Compound 14], for which the half-inhibitory concentration (IC50) under setting [1] came out at 0.5 nM. Regarding `O=C(Nc1ccc(F)cc1F)Nc1cc(C2(C(=O)O)CCCC2)ccc1N(CCC(F)(F)F)Cc1ccc(OC(F)(F)F)cc1` [Compound 13], the IC50 under setting [1] was determined as 0.6 nM. With `CCC(C(=O)O)c1ccc(N(CC(C)C)CC(C)C)c(Nc2ccc(S(C)(=O)=O)cc2)c1` (single isomer, unassigned) [Compound 60A], the half-inhibitory concentration (IC50) under setting [2] came to 33 nM. `CC(C)C1COCCN1c1ncc(C2(C(=O)O)CCC2)cc1Nc1ccc(Cl)cc1` (centres unmarked) [Compound 128]: the 50% inhibitory concentration (IC50) under setting [1] was 9.3 nM. On to `CC(C)CN(CC(C)C)c1ccc(C2(C(=O)O)CCC2)cc1Nc1ccc(Cl)cc1` [Compound 96], for which the IC50 under setting [1] worked out at 0.4 nM. On the same count and under the same terms, with `CCOc1ncc(Nc2cc(C3(C(=O)O)CCC3)ccc2N(CC(C)C)C2CCCCC2)cn1` [Compound 55] the figure was 0.3 nM; with `CCN(c1ccc(C2(C(=O)O)CCC2)cc1NC(=O)Nc1ccc(F)cc1F)C1CCOCC1` [Compound 24], 2.2 nM.

`CCC(C(=O)O)c1ccc(N(CC(C)C)CC(C)C)c(NC(=O)Nc2cc(C)no2)c1` (single isomer, unassigned) [Compound 59B]: the IC50 under setting [2] worked out at 0.1 nM. On to `CCC(C(=O)O)c1ccc(N(CC(C)C)C2CCOCC2)c(Nc2ccc(F)cc2F)c1` (centres unmarked) [Compound 69], for which the IC50 under setting [1] was 3.9 nM. Take `CC(C)CN(c1ccc(C2(C(=O)O)CCC2)cc1Nc1cccc(Cl)c1)C1CCOCC1` [Compound 100]: the IC50 under setting [1] was determined as 3.5 nM. `CC(C)CN(CC(C)C)c1c(F)cc(Cc2nnn[nH]2)cc1NC(=O)Nc1ccc(F)cc1F` [Compound 6]: the IC50 under setting [1] was found to be 8.5 nM. As for `CC(C)CN(CC(C)C)c1ccc(C2(C(=O)O)CC(F)(F)C2)cc1NC(=O)Nc1ccc(F)cc1F` [Compound 29], the IC50 under setting [1] was 4 nM. In the case of `CC(C)CN(c1ccc(C2(C(=O)O)CCC2)cc1Nc1cncnc1)C1CCCCC1` [Compound 54], the IC50 under setting [1] is 0.6 nM. Turning to `CCC(C(=O)O)c1ccc(N(CC(C)C)C2CCOCC2)c(Nc2ccc3c(c2)OC(F)(F)O3)c1` (single isomer, unassigned) [Compound 71A], under setting [2], the IC50 stood at 0.3 nM. As for `Cc1cc(NC(=O)Nc2cc(C3(C(=O)O)CCC3)cnc2N(CC(C)C)CC(C)C)on1` [Compound 85], the IC50 under setting [1] is 19 nM. Regarding `CCOc1ccc(Nc2cc(C3(C(=O)O)CCC3)ccc2N(CC(C)C)C2CCOCC2)cc1` [Compound 73], the IC50 under setting [1] was 0.4 nM. Regarding `Cc1csc(Nc2cc(C3(C(=O)O)CCC3)ccc2N(CC(C)C)C2CCOCC2)n1` [Compound 76], under setting [1], the 50% inhibitory concentration (IC50) came to 1.1 nM. As to `CC(C)CN(CC(C)C)c1ccc(C2(C(=O)O)CCC2)cc1NC(=O)Nc1cncnc1` [Compound 18], under setting [1], the IC50 is 6.6 nM. As for `COCCN(c1ccc(C2(C(=O)O)CCC2)cc1NC(=O)Nc1ccc(F)cc1F)C1CCCCC1` [Compound 22], under setting [1], the IC50 was found to be 2.1 nM.

Turning to `CCOc1ncc(Nc2cc(C3(C(=O)O)CCC3)cnc2N(CC(C)C)C2CCOCC2)cn1` [Compound 122], the IC50 under setting [1] was found to be 2.3 nM. `CCC(C(=O)O)c1ccc(N(CC(C)C)C2CCOCC2)c(Nc2ccc(Cl)cc2)c1` (centres unmarked) [Compound 68A]: the 50% inhibitory concentration (IC50) under setting [1] worked out at 0.4 nM. In the case of `CC(C)N(CC1CC1)c1ncc(C2(C(=O)O)CCC2)cc1Nc1ccc(C#N)cc1` [Compound 116], the IC50 under setting [1] is 0.5 nM.

Consider `CC(C)CN(c1ccc(C2(C(=O)O)CCC2)cc1Nc1ccc(F)cc1F)C1CCOCC1` [Compound 89], for which the IC50 under setting [1] is 6.3 nM. For the compound `CC(C)CN(c1ccc(C2(C(=O)O)CCC2)cc1Nc1ccc(Cl)c(F)c1)C1CCOCC1` [Compound 101], the IC50 under setting [1] amounted to 0.2 nM. In the case of `CC(C)CN(CC(C)C)c1ccc(C(C)(C)C(=O)O)cc1NC(=O)Nc1ccc(F)cc1F` [Compound 4], under setting [1], the IC50 came out at 14.9 nM.

Take `CC(C)CN(c1ccc(C2(C(=O)O)CCC2)cc1Nc1ccc(Cl)cc1)C1CCCCC1` [Compound 52]: the IC50 under setting [1] is 0.3 nM.

`CCOc1ncc(Nc2cc(C(C)(C)C(=O)O)ccc2N(CC(C)C)C2CCOCC2)cn1` [Compound 121]: the IC50 under setting [1] turned out to be 4.1 nM. Consider `CC(C)CN(c1ccc(OC(C)(C)C(=O)O)cc1NC(=O)Nc1ccc(F)cc1F)C1CCCCC1` [Compound 35], for which the IC50 under setting [1] was 1.9 nM. In the case of `CCN(c1ccc(C2(C(=O)O)CCC2)cc1NC(=O)Nc1ccc(F)cc1F)C1CCCCC1` [Compound 20], the IC50 under setting [1] was found to be 0.5 nM. As to `Cc1cc(NC(=O)Nc2cc(C3(C(=O)O)CCC3)ccc2N(CC(C)C)CC(C)C)on1` [Compound 17], under setting [1], the IC50 is 0.8 nM. Still for that read-out and setting: with `CCOc1ncc(Nc2cc(C3(C(=O)O)CCC3)cnc2N2CCC(c3ccccc3)CC2)cn1` [Compound 126] the figure was 7.5 nM; with `CC(C)CN(CC(C)C)c1ccc(C2(c3nnn[nH]3)CC(F)(F)C2)cc1NC(=O)Nc1ccc(F)cc1F` [Compound 30], 1 nM. For the compound `Cc1cc(NC(=O)Nc2cc(OC(C)(C)C(=O)O)ccc2N(CC(C)C)CC(C)C)on1` [Compound 34], under setting [1], the 50% inhibitory concentration (IC50) was determined as 7.7 nM.

As for `CC(C)CN(CC(C)C)c1ccc(OC(C)(C)C(=O)O)cc1NC(=O)Nc1ccc(F)cc1F` [Compound 32], the IC50 under setting [1] worked out at 0.8 nM.

`Cc1cc(NC(=O)Nc2cc([C@H]3C[C@H]3C(=O)O)ccc2N(CC(C)C)CC(C)C)on1` [Control 2, (1R,2S)-2-(4-(diisobutylamino)-3-(3-(3-methylisoxazol-5-yl)ureido)phenyl)cyclopropanecarboxylic acid, reference compound]: the IC50 under setting [1] was 3 nM. In the case of `CC(C)CN(CC(C)C)c1ccc(C2(C(=O)O)CCCC2)cc1Nc1nc2ccccc2[nH]1` [Compound 47], the IC50 under setting [1] was 5.6 nM. Consider `CCC(C(=O)O)c1ccc(N(CC(C)C)C2CCOCC2)c(NC(=O)Nc2ccc(F)cc2F)c1` (single isomer, unassigned) [Compound 65A], for which, under setting [2], the IC50 came out at 0.8 nM. In the case of `CC(C)CN(c1ccc(C2(C(=O)O)CCC2)cc1NC1CCCC1)C1CCOCC1` [Compound 78], under setting [1], the half-maximal inhibitory concentration (IC50) was determined as 13.9 nM.

As usually defined, the IC50 is the concentration at which inhibition is half-maximal.
